What all share (type): in vivo
The test system of assay [1] is ovariectomized ddY female mouse (OVX mouse). Put plainly: Blood estradiol, progesterone and cortisol by ELISA in female climacteric (OVX) mouse model. Conditions: 10 mg/kg/day oral, 12 weeks; for decrease level of estradiol (17β-estradiol, E2) in the blood: vs. OVX negative control (FIG. 6a); for decrease level of progesterone in the blood: vs. OVX negative control (FIG. 6b). Here is the method:
(§1) A 10-week-old ovariectomized ddY female mouse (OVX mouse) was used as a climacteric animal model to evaluate the in vivo efficacy of Loganin (ovariectomy after 8 weeks and 2 weeks of additional feeding for recovering conditions). Sham mouse group cut the abdomen open without ovariectomy (normal control group) was used as control group, and OVX mouse group in which physiological saline alone was administered to ovariectomized mice (negative control group) and SrCl2 mouse group in which a single compound, strontium chloride (SrCl2), was orally injected at a dose of 10 mg/kg/day (comparison group of […] compound administration) were used. 10-week-old Sham-operated and ovariectomized ddY female mice were purchased from Central Laboratory Animals Co. and transferred to a clean animal breeding area after a 1-week purifying period in the quarantine room of Experimental Animal Center in Ajou University. The weight of each mouse was measured and group separation was performed so that there was no statistically significant weight difference between the experimental groups. For the experiment, a test solution of Loganin was prepared as an aqueous solution and in order to bring in the laboratory animal center, a sterilization operation was carried out by irradiating with a gamma ray by a radiation irradiation professional company, Soyagreentec Co., Ltd. In the test group, Loganin was orally injected at a dose of 10 mg/kg/day for 12 weeks and blood estrogen level, estrogen receptor alpha expression level in uterus tissue, uterine size, body weight, and fat cell size of liver and abdominal adipose tissue were measured and analyzed.
An ordinary female climacteric symptom results in a significant reduction in female hormones, i.e. estrogen and progesterone. The amount of estradiol (17β-estradiol, E2) and progesterone which are estrogen in the blood was measured by ELISA after 12 weeks of administration of Loganin to female climacteric mouse model.
On the technique in general: An ELISA detects its analyte on a solid surface through an enzyme-linked reagent.

The test system of a further assay is estrogen receptor alpha. Put plainly: Estrogen receptor alpha mRNA and protein expression in uterus of climacteric mouse model. Conditions: OVX mouse, 10 mg/kg/day oral, 12 weeks; for decrease of the estrogen receptor alpha protein in uterus section: immunohistochemistry, vs. OVX negative control (FIG. 7b); for decrease of mRNA expression of the estrogen receptor alpha in uterus: vs. OVX negative control (FIG. 7a). The protocol:
as §1
An ordinary female climacteric symptom results in a remarkable reduction in estrogen receptors in uterine tissue cells due to estrogen decrease. The estrogen receptor is activated by estradiol (17β-estradiol, E2) and has two classes of estrogen receptor alpha and estrogen receptor beta. In the uterus, the estrogen receptor alpha plays a more important role than the estrogen receptor beta, and during climacterium, a marked reduction in the estrogen receptor alpha causes contraction and degeneration of the uterus. The mRNA expression level of the estrogen receptor alpha gene and the estrogen receptor alpha protein expression level by immunohistochemistry of section of the uterus were analyzed after 12 weeks of administration of Loganin to climacteric mouse model followed by extirpating uterus.

Assay [2] relates to ovariectomized ddY female mouse (OVX mouse). Put plainly: Uterine contraction and degeneration (shape, size, thickness, weight) in climacteric mouse model. Conditions: 10 mg/kg/day oral, 12 weeks; for outward shape and size of the uterus: vs. OVX negative control (FIG. 8a); for thickness of the H & E-stained uterine section: vs. OVX negative control (FIG. 8b); for weight of the uterus: vs. OVX negative control (FIG. 8c). The protocol:
as §1
An ordinary female climacteric symptom results in uterine contraction and degeneration due to estrogen decrease. The shape, size, thickness and weight of the uterus were observed after 12 weeks of administration of Loganin to female climacteric mouse model followed by extirpating uterus. When compared to normal Sham mouse without ovariectomy, the uterus was small (FIG. 8a), the thickness of the section was thin (FIG. 8b) and the uterine weight was light (FIG. 8c) in ovariectomized OVX mouse.

Assay [3] has the same test system. Put plainly: Body weight and blood insulin and leptin (ELISA) in climacteric mouse model. Conditions: 10 mg/kg/day oral, 12 weeks; for increase in insulin in the blood / increase in leptin in the blood: ELISA; for increase in insulin in the blood: vs. OVX negative control (FIG. 9b); for increase in leptin in the blood: vs. OVX negative control (FIG. 9c); for weight gain (body weight): vs. OVX negative control (FIG. 9a). Here is the method: as §1
An ordinary female climacteric symptom results in weight gain due to estrogen decrease. The changes in body weight of mice and the presence of insulin and leptin, the metabolic hormone proteins, were measured by ELISA after 12 weeks of administration of Loganin to female climacteric mouse model.

Assay [4] shares this test system. Put plainly: Fat accumulation in liver and fat cell size in abdominal adipose tissue (H & E staining) in climacteric mouse model. Particulars: 10 mg/kg/day oral, 12 weeks; for fat accumulation in the liver: H & E staining (FIG. 10a); for increase in fat cell size in the abdominal adipose tissue: H & E staining (FIG. 10b). The protocol:
as §1
In general, when estrogen is reduced in female climacterium, new estrogen is produced from adipocytes to offset the estrogen deficiency. In this process, more fat cells are produced and can cause abdominal obesity. In other words, fat accumulation in the liver and fat cell size increase in abdominal adipose tissue are caused by the increase of insulin and leptin, which are hormone proteins related to lipid metabolism. Liver and abdominal adipose tissues of mice were extirpated and H & E stained after 12 weeks of administration of Loganin to female climacteric mouse model.

For `COC(=O)C1=CO[C@@H](O[C@@H]2O[C@H](CO)[C@@H](O)[C@H](O)[C@H]2O)[C@@H]2[C@@H](C)[C@@H](O)C[C@H]12` [Loganin], in assay [1], the “decrease level of estradiol (17β-estradiol, E2) in the blood” value is “significantly inhibited” and the “decrease level of progesterone in the blood” value was “significantly inhibited”. Moreover, in the assay on estrogen receptor alpha, the “decrease of the estrogen receptor alpha protein in uterus section” value was “significantly inhibited” and the “decrease of mRNA expression of the estrogen receptor alpha in uterus” value is recorded as “significantly inhibited”. In assay [2], the “outward shape and size of the uterus” value is listed as “significantly inhibited”; the “thickness of the H & E-stained uterine section” value was “significantly inhibited”; the “weight of the uterus” value was “significantly inhibited”. Besides, in assay [3], the “increase in insulin in the blood” value was “significantly inhibited”, the “increase in leptin in the blood” value is “significantly inhibited” and the “weight gain (body weight)” value is “significantly inhibited”. For the same molecule, in assay [4], the “fat accumulation in the liver” value is reported as “remarkably inhibited” and the “increase in fat cell size in the abdominal adipose tissue” value was “remarkably inhibited”.
On to `[Cl-].[Cl-].[Sr+2]` [SrCl2, strontium chloride], for which, in assay [1], the “decrease level of estradiol (17β-estradiol, E2) in the blood” value is on record as “no difference with OVX mouse” and the “decrease level of progesterone in the blood” value is reported as “no difference with OVX mouse”. Moreover, in the assay with estrogen receptor alpha, the “decrease of the estrogen receptor alpha protein in uterus section” value is “no difference with OVX mouse” and the “decrease of mRNA expression of the estrogen receptor alpha in uterus” value is reported as “no difference with OVX mouse”. Further, in assay [2], the “outward shape and size of the uterus” value is recorded as “no difference with OVX mouse”; the “thickness of the H & E-stained uterine section” value was “no difference with OVX mouse”; the “weight of the uterus” value was “no difference with OVX mouse”. For the same molecule, in assay [3], the “increase in insulin in the blood” value is reported as “no difference with OVX mouse”, the “increase in leptin in the blood” value was “no difference with OVX mouse” and the “weight gain (body weight)” value is on record as “no difference with OVX mouse”. In assay [4], the “fat accumulation in the liver” value was “no difference with OVX mouse” and the “increase in fat cell size in the abdominal adipose tissue” value is reported as “no difference with OVX mouse”.
